# Columns and labels:
# thrombin = thrombin (Homo sapiens, UniProt P00734); test: Thrombin amidolytic assay (Chromozym TH); type: biochemical; conditions: read-out: Inhibitory Activity (IC50) Thrombin
# Protocol: The compounds of the present invention are dissolved in buffer to give solutions containing concentrations such that assay concentrations range from 0 to 100 μM. In the assays for thrombin, prothrombinase and factor Xa, a synthetic chromogenic substrate is added to a solution containing test compound and the enzyme of interest and the residual catalytic activity of that enzyme is determined spectrophotometrically. The IC50 of a compound is determined from the substrate turnover.
# The factor Xa and thrombin assays were performed at room temperature, in 0.02 M Tris·HCl buffer, pH 7.5, containing 0.15 M NaCl. The rates of hydrolysis of the para-nitroanilide substrate S-2765 (Chromogenix) for factor Xa, and the substrate Chromozym TH (Boehringer Mannheim) for thrombin following preincubation of the enzyme with inhibitor for 5 minutes at room temperature, and were determined using the Softmax 96-well plate reader (Molecular Devices), monitored at 405 nm to measure the time dependent appearance of p-nitroaniline.
# factor Xa = factor Xa (Homo sapiens, UniProt P00742); test: Factor Xa amidolytic assay (chromogenic substrate S-2765); type: biochemical; conditions: read-out: Inhibitory Activity (IC50) Factor Xa
# Protocol: (§1) In the assays for thrombin, prothrombinase and factor Xa, a synthetic chromogenic substrate is added to a solution containing test compound and the enzyme of interest and the residual catalytic activity of that enzyme is determined spectrophotometrically. The IC50 of a compound is determined from the substrate turnover.
# prothrombinase complex = prothrombinase complex (Homo sapiens, UniProt P00742); test: Prothrombinase inhibition assay (plasma free system, Chromozym TH); type: biochemical; conditions: read-out: Inhibitory Activity (IC50) Prothrombinase
# Protocol: as §1
# [1] = system: Rabbit Model of Venous Thrombosis; test: Rabbit deep vein thrombosis model, inhibition of thrombus growth; type: in vivo; conditions: for % Inhibition of Thrombosis: rabbit
# Description: (§2) Rabbits were anesthetized with I.M. injections of Ketamine, Xylazine, and Acepromazine cocktail. A standardized protocol consisted of insertion of a thrombogenic cotton thread and copper wire apparatus into the abdominal vena cava of the anesthetized rabbit. A non-occlusive thrombus was allowed to develop in the central venous circulation and inhibition of thrombus growth was used as a measure of the antithrombotic activity of the studied compounds. Test agents or control saline were administered through a marginal ear vein catheter. A femoral vein catheter was used for blood sampling prior to and during steady state infusion of test compound. Initiation of thrombus formation begins immediately after advancement of the cotton thread apparatus into the central venous circulation. Test compounds were administered from time=30 min to time=150 min at which the experiment was terminated. The rabbits were euthanized and the thrombus excised by surgical dissection and characterized by weight and histology. Blood samples were analyzed for changes in hematological and coagulation parameters.
# [2] = Coagulation parameters (aPTT, PT) in rabbit venous thrombosis model; type: in vivo; conditions: for PT fold increase over baseline / aPTT fold increase over baseline: steady state, mean ± SD
# Description: as §2
# [3] = rabbit, in vivo
# Description: as §2
# [4] = highest dose (100 μg/kg+2.57 μg/kg/min)
# Sequence of prothrombinase complex (P00742 41-179 limits assumed): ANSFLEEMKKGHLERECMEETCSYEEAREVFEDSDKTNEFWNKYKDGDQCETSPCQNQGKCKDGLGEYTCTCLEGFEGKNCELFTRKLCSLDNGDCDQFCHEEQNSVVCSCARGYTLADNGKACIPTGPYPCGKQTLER
# Sequence of prothrombinase complex (P00742 235-488 limits assumed): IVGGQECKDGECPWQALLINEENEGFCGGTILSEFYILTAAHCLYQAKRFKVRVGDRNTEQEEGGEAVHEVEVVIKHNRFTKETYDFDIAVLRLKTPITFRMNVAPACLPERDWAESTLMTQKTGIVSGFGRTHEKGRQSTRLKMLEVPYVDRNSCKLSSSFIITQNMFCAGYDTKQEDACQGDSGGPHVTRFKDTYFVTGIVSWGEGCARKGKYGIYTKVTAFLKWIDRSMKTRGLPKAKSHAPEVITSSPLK
# Sequence of prothrombinase complex (P12259 29-737 partner limits assumed): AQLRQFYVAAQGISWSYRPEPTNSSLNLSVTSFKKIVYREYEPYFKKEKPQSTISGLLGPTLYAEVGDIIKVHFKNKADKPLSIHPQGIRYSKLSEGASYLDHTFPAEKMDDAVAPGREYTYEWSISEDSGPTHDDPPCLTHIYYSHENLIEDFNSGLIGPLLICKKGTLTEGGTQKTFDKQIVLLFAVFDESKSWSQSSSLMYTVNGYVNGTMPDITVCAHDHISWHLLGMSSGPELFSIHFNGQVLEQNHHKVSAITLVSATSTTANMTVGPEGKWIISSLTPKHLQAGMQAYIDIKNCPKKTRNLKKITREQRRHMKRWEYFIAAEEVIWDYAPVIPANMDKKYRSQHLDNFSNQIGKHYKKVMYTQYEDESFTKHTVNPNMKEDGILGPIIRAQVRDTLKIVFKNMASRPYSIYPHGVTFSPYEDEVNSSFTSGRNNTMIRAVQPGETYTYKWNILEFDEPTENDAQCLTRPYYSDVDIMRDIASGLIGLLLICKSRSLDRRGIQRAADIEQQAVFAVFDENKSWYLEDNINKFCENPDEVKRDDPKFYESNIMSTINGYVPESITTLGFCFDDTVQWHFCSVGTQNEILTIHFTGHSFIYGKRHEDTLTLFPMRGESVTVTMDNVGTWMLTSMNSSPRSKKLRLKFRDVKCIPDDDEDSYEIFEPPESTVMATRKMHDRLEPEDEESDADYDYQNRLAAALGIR
# Sequence of prothrombinase complex (P12259 1574-2224 partner limits assumed): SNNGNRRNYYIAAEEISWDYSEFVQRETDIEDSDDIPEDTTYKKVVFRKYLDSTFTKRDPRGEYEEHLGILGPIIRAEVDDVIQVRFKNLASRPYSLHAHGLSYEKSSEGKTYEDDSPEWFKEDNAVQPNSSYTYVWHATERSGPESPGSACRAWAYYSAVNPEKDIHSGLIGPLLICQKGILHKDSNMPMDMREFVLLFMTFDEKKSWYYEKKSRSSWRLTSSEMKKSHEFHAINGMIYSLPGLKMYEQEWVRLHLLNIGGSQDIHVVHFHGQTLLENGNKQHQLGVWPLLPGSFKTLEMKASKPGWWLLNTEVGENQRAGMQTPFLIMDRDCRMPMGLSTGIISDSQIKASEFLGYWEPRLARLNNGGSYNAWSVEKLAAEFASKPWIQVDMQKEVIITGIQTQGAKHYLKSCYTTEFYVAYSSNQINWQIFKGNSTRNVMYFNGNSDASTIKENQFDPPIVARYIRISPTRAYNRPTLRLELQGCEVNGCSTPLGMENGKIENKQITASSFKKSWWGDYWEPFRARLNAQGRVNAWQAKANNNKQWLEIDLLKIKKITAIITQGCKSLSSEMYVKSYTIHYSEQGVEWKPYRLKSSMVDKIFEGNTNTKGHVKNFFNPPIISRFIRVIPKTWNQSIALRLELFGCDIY
# Sequence of factor Xa (P00742 41-179 limits assumed): as the sequence (P00742 41-179 limits assumed) above
# Sequence of factor Xa (P00742 235-488 limits assumed): as the sequence (P00742 235-488 limits assumed) above
Compound,IC50 (thrombin) [µM],IC50 (factor Xa) [µM],IC50 (prothrombinase complex) [µM],antithrombotic efficacy in the rabbit venous thrombosis model ([1]; at the higher doses evaluated),% Inhibition of Thrombosis ([1]; dose regimen 50 + 1.28 (μg/kg + μg/kg/min)) [%],% Inhibition of Thrombosis ([1]; dose regimen 75 + 1.93 (μg/kg + μg/kg/min)) [%],% Inhibition of Thrombosis ([1]; dose regimen 100 + 2.57 (μg/kg + μg/kg/min)) [%],PT fold increase over baseline ([2]; 50 + 1.28 (μg/kg + μg/kg/min)) [fold],aPTT fold increase over baseline ([2]; 50 + 1.28 (μg/kg + μg/kg/min)) [fold],PT fold increase over baseline ([2]; 75 + 1.93 (μg/kg + μg/kg/min)) [fold],aPTT fold increase over baseline ([2]; 75 + 1.93 (μg/kg + μg/kg/min)) [fold],PT fold increase over baseline ([2]; 100 + 2.57 (μg/kg + μg/kg/min)) [fold],aPTT fold increase over baseline ([2]; 100 + 2.57 (μg/kg + μg/kg/min)) [fold],"effect on PT prolongation [2, 4]","effect on aPTT prolongation [2, 4]",effects on hematological parameters [3]
"N=C(N)NCCC[C@H](NC(=O)CNC(=O)[C@@H](CCCNC(=N)N)NS(=O)(=O)Cc1ccccc1)C(=O)c1nccs1 [BriSO2 -(D)-Arg-Gly-Arg-thiazole, BnSO2 -(D)-Ar g-Gly-Arg-Thiazole]",10,,,,,,,,,,,,,,,
"NC(N)=NCCCC(N)C(=O)NCC(=O)NC(CCCN=C(N)N)C(=O)c1nccs1 [H-D-Arg-Gly-Arg-thiazole, H-(D)-Arg-Gly-Arg-Thiazole]",41,0.011,0.01,demonstrated antithrombotic efficacy,-7.84,42.95,117.72,1.00 ± 0.00,1.00 ± 0.03,1.00 ± 0.00,1.02 ± 0.03,0.83 ± 0.00,1.08 ± 0.02,no significant effect,no significant effect,no significant effects

# Source: patent US6022861A, “Ketoheterocyclic inhibitors of factor Xa” (COR Therapeutics, Inc., priority 1995, dated 2000)
